Results from patent US12162858B2, “Quinoline derivatives as inhibitors of AXL/MER RTK and CSF1R” (QURIENT CO., LTD., priority 2018, dated 2024).
Where two headings read alike, the source gives them in different places.

Assays:
[1] = system: CSF1R (M-NFS-60 cells); assay: Cell Titer-Glo viability assay using M-NFS-60 cells; assay type: cell-based; details: Mus musculus, read-out: Cellular CSF1R activity by M-NFS-60 viability assay (IC50 activity range)
Method: M-NFS-60 cells were cultured in RPMI-1640 medium containing 10% FBS, 0.05 mM 2-Mercaptoethanol, penicillin (100 U/ml)/streptomycin ([…]) and supplemented with 62 ng/ml recombinant human M-CSF at 37° C./5% CO2. Aliquots of the cells were seeded into a 96-well plate (2×10^5 cells in 100 μl/well) and then incubated at 37° C./5% CO2 1 h. Dissolve compound in 100% DMSO to make 10 mM stock solutions (Aliquots stored in the Nitrogen Cabinet). Dilute 10 mM compounds solutions for 2-fold in 100% DMSO to get 5 mM solutions (10 μl+10 μl DMSO), and then make a 3-fold serial dilution (10 μl+20 μl DMSO) for 10 doses. For reference compounds: Dilute 10 mM compounds solutions for 20-fold in 100% DMSO to get 0.5 mM solutions (2 μl+38 μl DMSO), and then make a 3-fold serial dilution (10 μl+20 μl DMSO) for 8 doses. The 96-well plate was equilibrated at room temperature for 30 min. 50 μl of CellTiter-Glo® Reagent added to each well and mixed for 2 min on an orbital shaker to induce cell lysis. The 96-well plate was incubated at room temperature for 10 min to stabilize luminescent signal. Luminescent was measured […] by EnVison plate reader. Calculations and Formulas: The following calculations and formulas are used for data analysis using XL Fit software: The curve fitting was made using the Sigmoidal Dose-Response Model (Fit model, 205).

[2] = biological target: T1, Axl (Homo sapiens, UniProt P30530); assay: Cellular Axl inhibition ELISA (p-Axl, Gas6-induced) using H1299 cells; assay type: cell-based; set-up: especially H1299 cell endogenously expresses Axl; endogenous in cells; host or cells: H1299
T1 sequence (P30530 26-894): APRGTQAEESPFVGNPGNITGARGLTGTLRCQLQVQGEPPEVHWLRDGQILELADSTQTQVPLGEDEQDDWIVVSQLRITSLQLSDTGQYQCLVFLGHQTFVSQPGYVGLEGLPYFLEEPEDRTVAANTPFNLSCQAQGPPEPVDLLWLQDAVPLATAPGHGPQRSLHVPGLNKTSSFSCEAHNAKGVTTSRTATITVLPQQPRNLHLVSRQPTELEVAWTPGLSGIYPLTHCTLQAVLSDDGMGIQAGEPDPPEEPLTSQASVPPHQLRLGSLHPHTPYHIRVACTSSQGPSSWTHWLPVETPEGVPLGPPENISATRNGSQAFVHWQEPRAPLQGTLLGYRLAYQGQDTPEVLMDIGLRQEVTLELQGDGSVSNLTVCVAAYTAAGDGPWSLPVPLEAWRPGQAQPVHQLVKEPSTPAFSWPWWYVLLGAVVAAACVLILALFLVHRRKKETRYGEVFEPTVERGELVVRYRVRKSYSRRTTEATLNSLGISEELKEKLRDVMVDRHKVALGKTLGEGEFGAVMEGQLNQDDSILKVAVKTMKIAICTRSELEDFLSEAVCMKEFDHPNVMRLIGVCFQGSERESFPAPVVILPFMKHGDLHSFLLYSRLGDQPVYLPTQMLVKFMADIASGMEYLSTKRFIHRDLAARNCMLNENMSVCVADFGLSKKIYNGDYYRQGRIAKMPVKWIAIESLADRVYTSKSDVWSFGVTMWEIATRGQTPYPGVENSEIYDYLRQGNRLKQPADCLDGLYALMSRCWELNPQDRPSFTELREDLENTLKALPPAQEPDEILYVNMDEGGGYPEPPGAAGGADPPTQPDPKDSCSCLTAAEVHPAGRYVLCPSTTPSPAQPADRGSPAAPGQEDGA
Method: Axl is expressed in several of malignant cancer cells; especially H1299 cell endogenously expresses Axl; and an increased phosphorylation of Axl (p-Axl) can be observed, when induced by the Axl ligand, Ga6.
The H1299 cells should be 40-80% confluent in the cell culture flask. Then cells are washed with DPBS and trypsinized. After centrifugation, the cell pellet is re-suspended with pre-warmed culture medium (RPMI1640, 10% FBS) and cells are separated by pipetting 6 times up and down with a 10 ml serological pipette. The cell suspension was diluted to a final concentration of 1.25×10^5 cells/ml. Then 80 μl/well cell suspension is added to the plate. Cell-plates are incubated at 37° C./5% CO2 overnight. Compounds were dissolved by DMSO to 10 mM, and kept in nitrogen cabinet. Prepare the compounds stock plate, the reference compounds concentration starts at 0.50 mM (5 μl+95 μl DMSO), and the tested compounds start at 1.5 mM (6 μl+34 μl DMSO); Then make a 3-fold dilution series (10 doses) compounds. Then dilute compounds by the medium in the mid plate (2 μl compounds+198 μl medium). Transfer 20 μl diluted compounds from mid plate to the cell coated plate. Cell-plates are incubated at 37° C./5% CO2 for 24 h. Add 25 μl of Human Gas6 (1000 ng/ml) to 96-well plate; the final concentration of Human Gas6 is 200 ng/ml. Incubate the plates at 37° C./5% CO2 for 1 h. Remove medium and wash cells once with 300 ul/well ice-cold 1×PBS. Then remove PBS and add 100 μl/well ice-cold 1× Cell Lysis Buffer to 96-well plate. The plate is shaken for 40 min at 4° C. Then plates can be stored at −20° C. After the micro-wells strips have reached room temperature, break off the required number of micro-wells. Place the micro-wells in the strip holder. Unused micro-wells must be resealed and stored at 4° C. immediately. Add 60 μl of cell lysate to the appropriate well. Seal with tape and press firmly onto top of micro-wells. Incubate the plate at 37° C. for 2 h. Gently remove the tape and wash wells 5 times with 1× Wash Buffer, 300 μl each time for each well. Add 100 μl of reconstituted Detection Antibody (green color) to each well. Seal with tape and incubate the plate at 37° C. for 1 h. Repeat wash procedure. Add 100 μl of reconstituted HRP Linked secondary antibody to each well. Seal with tape and incubate the plate at 37° C. for 30 min. Repeat wash procedure. Add 100 μl of TMB Substrate to each well. Seal with tape and incubate the plate at 37° C. for 15 min. Add 100 μl of STOP Solution to each well. Shake gently for a few seconds. Read absorbance at 450 nm within 30 min after adding STOP Solution. Calculations and Formulas: The following calculations and formulas are used for data analysis using XL Fit software: The curve fitting was made using the Sigmoidal Dose-Response Model (Fit model, 205).

[3] = read-out: Cellular Axl activity by H1299 Elisa (IC50)
[4] = Elisa, comparison of compounds of present invention (**) vs compounds of WO2016/166250 (*), read-out: Cellular activity Axl (H1299) (IC50)

Row | Structure (SMILES) | IC50 [1] | IC50 [2, 3] | IC50 [2, 4]
1 | COc1cc2nccc(Oc3ccc(NC(=O)c4nn(CC(C)O)cc4OCC4CCC4)nc3)c2cc1OC (stereo not drawn) [Compound 163] | 1 to 10 µM | < 0.5 µM | 
2 | CNCCn1cc(OCC(F)(F)F)c(C(=O)Nc2ccc(Oc3ccnc4cc(OC)c(OC)cc34)cc2)n1 [Compound 119] | 1 to 10 µM | ≥ 1 µM | 
3 | CCCn1cc(OCCNC)c(C(=O)Nc2ccc(Oc3ccnc4cc(OC)c(OC)cc34)cn2)n1 [Compound 140] | 1 to 10 µM | ≥ 1 µM | 
4 | COCCOc1cn(C2CC2)nc1C(=O)Nc1ccc(Oc2ccnc3cc(OC)c(OC)cc23)cn1 [Compound 107] | 1 to 10 µM | < 0.5 µM | 
5 | CNCCOc1cn(C2CC2)nc1C(=O)Nc1ccc(Oc2ccnc3cc(OC)c(OC)cc23)cn1 [Compound 141] | ≥ 10 µM | ≥ 1 µM | 
6 | CCCn1cc(OCC(F)(F)F)c(C(=O)Nc2ccc(Oc3ccnc4cc(OC)c(OC)cc34)cn2)n1 [Compound 7] | < 1 µM | < 0.5 µM | 
7 | COc1cc2nccc(Oc3ccc(NC(=O)c4nn(CC5COC5)cc4OCC(F)(F)F)nc3)c2cc1OC [Compound 92] | < 1 µM | < 0.5 µM | 0.0039 µM
8 | COc1cc2nccc(Oc3ccc(NC(=O)c4nn(C5CC5)cc4OCC4COC4)nc3)c2cc1OC [Compound 143] | 1 to 10 µM | < 0.5 µM | 
9 | COc1cc2nccc(Oc3ccc(NC(=O)c4nn(CC5COC5)cc4OCC(F)(F)F)cc3C)c2cc1OC [Compound 99] | 1 to 10 µM | < 0.5 µM | 
10 | COc1cc2nccc(Oc3ccc(NC(=O)c4nn(C5CCOC5)cc4OCC(F)(F)F)cn3)c2cc1OC (stereo not drawn) [Compound 138] | 1 to 10 µM | < 0.5 µM | 
11 | CCn1cc(OC(C)C)c(C(=O)Nc2ccc(Oc3ccnc4cc(OC)c(OC)cc34)cn2)n1 [Compound 6] | < 1 µM | < 0.5 µM | 
12 | COc1cc2nccc(Oc3ccc(NC(=O)c4nn(C5CC5)cc4NCC(F)(F)F)nn3)c2cc1OC [Compound 148] | 1 to 10 µM | < 0.5 µM | 
13 | COc1cc2nccc(Oc3ccc(NC(=O)c4nn(CCN)cc4OCC(F)(F)F)nn3)c2cc1OC [Compound 125] | ≥ 10 µM | ≥ 1 µM | 
14 | CCCn1cc(OCC2CNC2)c(C(=O)Nc2ccc(Oc3ccnc4cc(OC)c(OC)cc34)cn2)n1 [Compound 159] | ≥ 10 µM | ≥ 1 µM | 
15 | COc1cc2nccc(Oc3ccc(NC(=O)c4nn(CCO)cc4OCC(F)(F)F)cn3)c2cc1OC [Compound 129] | ≥ 10 µM | ≥ 1 µM | 
16 | COc1cc2nccc(Oc3ccc(NC(=O)c4nn(CC5COC5)cc4OCC(F)(F)F)nn3)c2cc1OC [Compound 123] | 1 to 10 µM | < 0.5 µM | 
17 | COc1cc2nccc(Oc3ccc(NC(=O)c4nn(C)cc4OCC(F)(F)F)nn3)c2cc1OC [Compound 102] | 1 to 10 µM | ≥ 1 µM | 
18 | COc1cc2nccc(Oc3ccc(NC(=O)c4nn(C5CCNC5)cc4OCC(F)(F)F)nn3)c2cc1OC (stereo not drawn) [Compound 122] | 1 to 10 µM | ≥ 1 µM | 
19 | COc1cc2nccc(Oc3ccc(NC(=O)c4nn(CC(C)O)cc4OC(C)C)nc3)c2cc1OC (stereo not drawn) [Compound 151] | < 1 µM | < 0.5 µM | 
20 | CCCn1cc(OCC(F)F)c(C(=O)Nc2ccc(Oc3ccnc4cc(OC)c(OC)cc34)cn2)n1 [Compound 12] | < 1 µM | < 0.5 µM | 
21 | CCCn1cc(OCC(F)(F)F)c(C(=O)Nc2ccc(Oc3ccnc4cc(OC)c(OC)cc34)nc2)n1 [Compound 139] | 1 to 10 µM | < 0.5 µM | 
22 | COCCn1cc(OCC(F)(F)F)c(C(=O)Nc2ccc(Oc3ccnc4cc(OC)c(OC)cc34)cn2)n1 [Compound 10] | < 1 µM | < 0.5 µM | 0.0052 µM
23 | COc1cc2nccc(Oc3ccc(NC(=O)c4nn(C5CCCC5)cc4OCC(F)(F)F)cn3)c2cc1OC [Compound 131] | 1 to 10 µM | < 0.5 µM | 
24 | COc1cc2nccc(Oc3ccc(NC(=O)c4nn(C5CCN(C)C5)cc4OCC(F)(F)F)nn3)c2cc1OC (stereo not drawn) [Compound 157] | 1 to 10 µM | ≥ 1 µM | 
25 | COc1cc2nccc(Oc3ccc(NC(=O)c4nn(C5CC5)cc4OC(C)C)nc3)c2cc1OC [Compound 108] | < 1 µM | < 0.5 µM | 
26 | COc1cc2nccc(Oc3ccc(NC(=O)c4nn(CCOC5CC5)cc4OCC(F)(F)F)cn3)c2cc1OC [Compound 130] | 1 to 10 µM | ≥ 1 µM | 
27 | COc1cc2nccc(Oc3ccc(NC(=O)c4nn(C5CC5)cc4OCC4COC4)nn3)c2cc1OC [Compound 161] | 1 to 10 µM | < 0.5 µM | 
28 | COc1cc2nccc(Oc3ccc(NC(=O)c4nn(CC(C)C)cc4OCC(F)(F)F)nn3)c2cc1OC [Compound 124] | 1 to 10 µM | < 0.5 µM | 
29 | CCCn1cc(OCCOC)c(C(=O)Nc2ccc(Oc3ccnc4cc(OC)c(OC)cc34)cn2)n1 [Compound 105] | < 1 µM | < 0.5 µM | 
